{"source": "patent US20040132803A1", "about": "“Agent for the treatment of overactive bladder” (priority 2003, published 2004)", "key": {"spinal cord-injured rats": {"tested_on": "spinal cord-injured rats", "experiment": "Inhibition of detrusor hyperreflexia, cystometry in spinal cord-injured rats", "type": "in vivo, rat", "description": "Spinal cord injury was induced in rats."}, "DRG cells": {"tested_on": "DRG cells", "experiment": "Current-clamp membrane potential in DRG cells", "type": "cell-based, rat", "details": "for Membrane potential (mV): current clamp", "experimental": "Experiments were performed on adult female Sprague Dawley rats. A population of unidentified DRG cells and a population of DRG neurons that innervate the urinary bladder were labeled by retrograde axonal transport of the fluorescent dye, Fast Blue (4% w/v) (Polyloy, Gross Umstadt, Germany), injected into the wall of the bladder in halothane-anesthetized animals 7 days before the dissociation. The dye was injected with a 28 gauge needle at three to six sites on the dorsal surface of the organ (5-6 μL per site, total volume of 20-30 μL). Each injection site was washed with saline to minimize contamination of adjacent organs with the dye.\nFreshly dissociated neurons from DRG were prepared from halothane-anesthetized animals. L6 and S1 DRG were dissected from animals and then dissociated in a shaking bath for 25 minutes at 35° C. with 5 mL DMEM (Sigma) containing 0.3 mg/mL trypsin (Type 3, Sigma), 1 mg/mL collagenase (Type 1, Sigma), and 0.1 mg/mL deoxyribonuclease (Type 4, Sigma). Trypsin inhibitor (Type 2a, Sigma) was then added thereto to neutralize the activity of trypsin. Individual DRG cell bodies were isolated by trituration and then plated on a poly-L-lysine-coated 35 mm Petri dishes.\nDye-labeled primary afferent neurons that innervate the urinary bladder were identified using an inverted phase-contrast microscope (Nikon, Tokyo, Japan) with fluorescent attachments (UV-1A filter; excitation wavelength, 365 nm). Gigaohm-seal whole-cell recordings were performed within 6-8 hours after cell dissociation at room temperature (20-22° C.) on each labeled neuron in a culture dish that usually contained three to seven labeled cells among a few hundred unlabeled neurons. The internal solution contained (in mmol/L): KCl 140, CaCl2 1, MgCl2 2, EGTA 11, HEPES 10, Mg-ATP 2, and Tris-GTP 0.4 adjusted to pH 7.4 with KOH. Patch electrodes had resistances of 1-4 M Ω when filled with the internal solution. Neurons were superfused at a flow rate of 1.5 mL/minutes with an external solution containing (in mmol/L): NaCl 150, KCl 5, CaCl2 2.5, MgCl2 1, HEPES 10, and D-glucose 10, adjusted to pH 7.4 with NaOH. All recordings were made with an Axopatch-1D patch-clamp amplifier (Axon Instruments, Foster City, Calif.), and data were acquired and analyzed by PCLAMP software (Axon Instruments).\nIn current-clamp recordings, membrane potential of DRG cells were measured before and after compound applications. The membrane potentials were normalized to control (before addition of the compound)."}, "[1]": {"details": "0.001 mg/kg p.o., after 3 hours"}, "[2]": {"details": "0.001 mg/kg p.o., after 5 hours"}}}
{"smiles": "C[C@](O)(C(=O)Nc1cccc2c1C(=O)c1sccc1CS2(=O)=O)C(F)(F)F", "note": "[Compound 1, (S)-(+)-N-(5,5-dioxido-10-oxo-4,10-dihydrothieno[3,2-c][l]benzothiepin-9-yl)-3,3,3-trifluoro-2-hydroxy-2-methylpropanamide]", "values": [{"measurement": "effect on micturition (physiological) contraction", "setting": "spinal cord-injured rats", "value": "had no influence"}, {"measurement": "effect on pre-micturition contraction (detrusor overactivity)", "setting": "spinal cord-injured rats", "value": "inhibited"}, {"measurement": "micturition contraction, relative to before administration = 100", "setting": "spinal cord-injured rats; 0.001 mg/kg p.o., after 1 hour", "value": "106.5 ± 11.3", "unit": "%"}, {"measurement": "pre-micturition contraction, relative to before administration = 100", "setting": "spinal cord-injured rats; 0.001 mg/kg p.o., after 1 hour", "value": "83.5 ± 6.8", "unit": "%"}, {"measurement": "micturition contraction, relative to before administration = 100", "setting": "spinal cord-injured rats; [1]", "value": "101.7 ± 9.5", "unit": "%"}, {"measurement": "pre-micturition contraction, relative to before administration = 100", "setting": "spinal cord-injured rats; [1]", "value": "95.4 ± 12.0", "unit": "%"}, {"measurement": "micturition contraction, relative to before administration = 100", "setting": "spinal cord-injured rats; [2]", "value": "103.1 ± 6.5", "unit": "%"}, {"measurement": "pre-micturition contraction, relative to before administration = 100", "setting": "spinal cord-injured rats; [2]", "value": "105.5 ± 20.8", "unit": "%"}, {"measurement": "micturition contraction, relative to before administration = 100", "setting": "spinal cord-injured rats; 0.01 mg/kg p.o., after 1 hour", "value": "114.4 ± 9.5", "unit": "%"}, {"measurement": "pre-micturition contraction, relative to before administration = 100", "setting": "spinal cord-injured rats; 0.01 mg/kg p.o., after 1 hour", "value": "59.6 ± 8.1", "unit": "%"}, {"measurement": "micturition contraction, relative to before administration = 100", "setting": "spinal cord-injured rats; 0.01 mg/kg p.o., after 3 hours", "value": "117.6 ± 13.9", "unit": "%"}, {"measurement": "pre-micturition contraction, relative to before administration = 100", "setting": "spinal cord-injured rats; 0.01 mg/kg p.o., after 3 hours", "value": "51.2 ± 6.7", "unit": "%"}, {"measurement": "micturition contraction, relative to before administration = 100", "setting": "spinal cord-injured rats; 0.01 mg/kg p.o., after 5 hours", "value": "117.6 ± 12.7", "unit": "%"}, {"measurement": "pre-micturition contraction, relative to before administration = 100", "setting": "spinal cord-injured rats; 0.01 mg/kg p.o., after 5 hours", "value": "42.2 ± 7.2", "unit": "%"}, {"measurement": "micturition contraction, relative to before administration = 100", "setting": "spinal cord-injured rats; 0.1 mg/kg p.o., after 1 hour", "value": "109.3 ± 6.3", "unit": "%"}, {"measurement": "pre-micturition contraction, relative to before administration = 100", "setting": "spinal cord-injured rats; 0.1 mg/kg p.o., after 1 hour", "value": "52.3 ± 9.1", "unit": "%"}, {"measurement": "micturition contraction, relative to before administration = 100", "setting": "spinal cord-injured rats; 0.1 mg/kg p.o., after 3 hours", "value": "110.2 ± 5.4", "unit": "%"}, {"measurement": "pre-micturition contraction, relative to before administration = 100", "setting": "spinal cord-injured rats; 0.1 mg/kg p.o., after 3 hours", "value": "33.3 ± 6.3", "unit": "%"}, {"measurement": "micturition contraction, relative to before administration = 100", "setting": "spinal cord-injured rats; 0.1 mg/kg p.o., after 5 hours", "value": "112.4 ± 7.0", "unit": "%"}, {"measurement": "pre-micturition contraction, relative to before administration = 100", "setting": "spinal cord-injured rats; 0.1 mg/kg p.o., after 5 hours", "value": "28.5 ± 6.2", "unit": "%"}, {"measurement": "effect on membrane potential", "setting": "DRG cells", "value": "hyperpolarization"}, {"measurement": "Membrane potential (mV)", "setting": "DRG cells; 1.0 × 10^−6 mol/L", "value": "−53.67 ± 0.74", "unit": "mV"}, {"measurement": "Membrane potential (mV)", "setting": "DRG cells; 1.0 × 10^−7 mol/L", "value": "−57.17 ± 0.53", "unit": "mV"}, {"measurement": "Membrane potential (mV)", "setting": "DRG cells; 1.0 × 10^−8 mol/L", "value": "−49.80 ± 0.65", "unit": "mV"}, {"measurement": "Membrane potential (mV)", "setting": "DRG cells; 1.0 × 10^−9 mol/L", "value": "−48.10 ± 0.48", "unit": "mV"}, {"measurement": "Membrane potential (mV)", "setting": "DRG cells; 5.0 × 10^−4 mol/L", "value": "−42.67 ± 1.46", "unit": "mV"}, {"measurement": "Membrane potential (mV)", "setting": "DRG cells; 5.0 × 10^−5 mol/L", "value": "−48.50 ± 1.28", "unit": "mV"}, {"measurement": "Membrane potential (mV)", "setting": "DRG cells; 5.0 × 10^−6 mol/L", "value": "−50.50 ± 0.88", "unit": "mV"}]}
